# Data: publication PMC11739741 (Clinical Pharmacology and Therapeutics, 2024)
# Entries after “also recorded” stand apart in the source; their conditions may differ. Where two headings read alike, the source gives them in different places.
# Columns and labels:
# [1] = MTX/GLPG3970 DDI study: plasma pharmacokinetics; assay type: in vivo, human; conditions: for Intra‐participant variability of AUC0–∞ and C max: MTX/GLPG3970 DDI study; for AUC(0-inf): AUC0–∞
# [2] = cited from earlier work
# [3] = test system: breast cancer resistance protein (BCRP); conditions: at clinically relevant concentrations; ref unpublished data; cited from earlier work
# [4] = cited from earlier work; remark: listed apart in the source
# [5] = SSZ/GLPG3970 DDI study: plasma pharmacokinetics; assay type: in vivo, human; conditions: for AUC(0-t) / AUC(0-inf) / Cmax: human, plasma, oral, geometric LS mean (95% CI); for AUC(0-t): AUC0–t; for AUC(0-inf): AUC0–∞; for Cmax: C max
# [6] = GLPG3970 350 mg + MTX 7.5 mg, Day 5 (n = 14)
# [7] = Day 5 (GLPG3970 + MTX) vs. day 1 (MTX alone)
# [8] = MTX 7.5 mg alone, Day 1 (n = 15)
# [9] = Day 5 (GLPG3970 + SSZ) vs. day 1 (SSZ alone)
# [10] = Day 9 (GLPG3970 2 h after SSZ) vs. day 1 (SSZ alone)
# [11] = 1000 mg, SSZ 1,000 mg alone, Day 1 (n = 8)
# [12] = GLPG3970 350 mg 2 h after SSZ 1,000 mg, Day 9 (n = 7)
# [13] = GLPG3970 350 mg + SSZ 1,000 mg, Day 5 (n = 7)
compound,measurement,setting,value
"CN(Cc1cnc2nc(N)nc(N)c2n1)c1ccc(C(=O)N[C@@H](CCC(=O)O)C(=O)O)cc1 [MTX, methotrexate, reference compound]","AUC0–t, geometric LS mean (95% CI)",[1]; [6],"583 (523, 649) ng.h/mL"
same,Time after which plasma concentrations fell below the LLOQ,"[1]; MTX 7.5 mg, LLOQ 5 ng/mL",12 h
same,Intra‐participant variability of AUC0–∞ and C max,[1],10–22%
same,AUC(0-t),"[1]; human, plasma, oral, 7.5 mg, AUC0–t, geometric LS mean (95% CI), MTX 7.5 mg alone, Day 1 (n = 15)",0.627 µg·h/mL
same,AUC(0-inf),"[1]; human, plasma, oral, 7.5 mg, geometric LS mean (95% CI), MTX 7.5 mg alone, Day 1 (n = 13)",0.677 µg·h/mL
same,AUC(0-inf),"[1]; human, plasma, oral, geometric LS mean (95% CI), GLPG3970 350 mg + MTX 7.5 mg, Day 5 (n = 12)",0.614 µg·h/mL
same,Cmax,"[1]; human, plasma, oral, C max, geometric LS mean (95% CI), GLPG3970 350 mg + MTX 7.5 mg, Day 5 (n = 14)",193 ng/mL
same,fraction of dose metabolized in the liver,[2],Approximately 10%
same,mean t 1/2,[2],3 to 10 h
same,bioavailability,[2]; oral dosing,~ 60%
same,excreted unchanged in urine,[2]; within 24 hours,80–90%
COc1cc(-c2cnc3cc(OCCN4CCOCC4)ccn23)cc2c1C(=O)N(CC(F)(F)F)CC2 [GLPG3970],Inhibition of BCRP in vitro,[3],strongly inhibits; also recorded: strong inhibition
same,Dose proportionality of exposure (AUC),[4]; across the evaluated dose range,increased more than the dose proportionally
same,Effect of food consumption on C max,"[4]; preliminary work, ref not given",reduced
same,Tolerability,"[4]; single and multiple ascending doses, healthy volunteers",well tolerated
"CN(Cc1nc2c(N)nc(N)nc2[nH]c1=O)c1ccc(C(=O)N[C@@H](CCC(=O)O)C(=O)O)cc1 [7‐OH‐MTX, 7‐hydroxy‐methotrexate]","AUC0–t, geometric LS mean ratio (90% CI)",[1]; [7],"80 (69, 92) %"
same,"C max, geometric LS mean ratio (90% CI)",[1]; [7],"77 (72, 82) %"
same,"AUC0–t, geometric LS mean (95% CI)",[1]; [6],"392 (332, 463) ng.h/mL"
same,"C max, geometric LS mean (95% CI)",[1]; [6],"27.0 (23.9, 30.4) ng/mL"
same,"AUC0–t, geometric LS mean (95% CI)",[1]; [8],"490 (418, 576) ng.h/mL"
same,"C max, geometric LS mean (95% CI)",[1]; [8],"35.0 (31.1, 39.4) ng/mL"
same,Reduction in AUC0–t,[1]; MTX + GLPG3970 vs. MTX alone,20%
same,Reduction in C max,[1]; MTX + GLPG3970 vs. MTX alone,23%
same,Reduction in exposure,[1]; MTX + GLPG3970 vs. MTX alone,20–23%
same,Intra‐participant variability of AUC0–∞ and C max,[1],10–22%
"Nc1ccc(S(=O)(=O)Nc2ccccn2)cc1 [SPD, sulfapyridine]","AUC0–t, geometric LS mean ratio (90% CI)",[5]; [9],"90 (81, 100) %"
same,"AUC0–∞, geometric LS mean ratio (90% CI)",[5]; [9],"90 (81, 101) %"
same,"C max, geometric LS mean ratio (90% CI)",[5]; [9],"90 (78, 102) %"
same,"AUC0–t, geometric LS mean ratio (90% CI)",[5]; [10],"89 (80, 99) %"
same,"AUC0–∞, geometric LS mean ratio (90% CI)",[5]; [10],"89 (80, 100) %"
same,"C max, geometric LS mean ratio (90% CI)",[5]; [10],"94 (82, 107) %"
same,Effect of GLPG3970 on SPD exposure,[5]; SSZ with GLPG3970 (simultaneously or 2 h before) vs. SSZ alone,similar; also recorded: no relevant effect
same,AUC(0-t),[5]; [11],119 µg·h/mL
same,AUC(0-inf),[5]; [11],125 µg·h/mL
same,Cmax,[5]; [11],5680 ng/mL
same,AUC(0-t),[5]; [12],106 µg·h/mL
same,AUC(0-t),[5]; [13],107 µg·h/mL
same,AUC(0-inf),[5]; [12],112 µg·h/mL
same,AUC(0-inf),[5]; [13],113 µg·h/mL
same,Cmax,[5]; [12],5310 ng/mL
same,Cmax,[5]; [13],5090 ng/mL
same,mean plasma t 1/2,[2]; fast acetylation phenotype (NAT2),10.4 h
same,mean plasma t 1/2,[2]; slow acetylation phenotype (NAT2),14.8 h
"O=C(O)c1cc(/N=N/c2ccc(S(=O)(=O)Nc3ccccn3)cc2)ccc1O [SSZ, sulfasalazine, reference compound]",AUC(0-t),[5]; [11],59.3 µg·h/mL
same,AUC(0-inf),[5]; [11],59.8 µg·h/mL
same,Cmax,[5]; [11],7270 ng/mL
same,AUC(0-t),[5]; [12],109 µg·h/mL
same,AUC(0-t),[5]; [13],108 µg·h/mL
same,AUC(0-inf),[5]; [12],110 µg·h/mL
same,AUC(0-inf),[5]; [13],109 µg·h/mL
same,Cmax,[5]; [12],13100 ng/mL
same,Cmax,[5]; [13],12000 ng/mL
same,Time at which systemic concentrations are detectable post‐dosing,"[2]; oral, literature, ref not given",~ 1.5 hours
same,t max,"[2]; post‐dosing, oral SSZ, literature, ref not given",3 to 12 h
